In article PMC11707700, “Exploiting fourth-generation synchrotron radiation for enzyme and photoreceptor characterization” (IUCrJ, 2025):

Tests used:
[1] = biological target: T1, SaBphP2-PCM (Allostigmatella aurantiaca, UniProt Q09E27); test: serial synchrotron X-ray crystallography (room temperature); type: binding; details: covalent; chromophore; dark Pr state, 2.1 A refinement; also difference map 700 ms after 640 nm light
T1 construct: gene STIAU_8420; photosensory core module (PAS-GAF-PHY), lacks C-terminal effector (histidine kinase) domain; recombinant; homodimer
T1 sequence (Q09E27 1-490): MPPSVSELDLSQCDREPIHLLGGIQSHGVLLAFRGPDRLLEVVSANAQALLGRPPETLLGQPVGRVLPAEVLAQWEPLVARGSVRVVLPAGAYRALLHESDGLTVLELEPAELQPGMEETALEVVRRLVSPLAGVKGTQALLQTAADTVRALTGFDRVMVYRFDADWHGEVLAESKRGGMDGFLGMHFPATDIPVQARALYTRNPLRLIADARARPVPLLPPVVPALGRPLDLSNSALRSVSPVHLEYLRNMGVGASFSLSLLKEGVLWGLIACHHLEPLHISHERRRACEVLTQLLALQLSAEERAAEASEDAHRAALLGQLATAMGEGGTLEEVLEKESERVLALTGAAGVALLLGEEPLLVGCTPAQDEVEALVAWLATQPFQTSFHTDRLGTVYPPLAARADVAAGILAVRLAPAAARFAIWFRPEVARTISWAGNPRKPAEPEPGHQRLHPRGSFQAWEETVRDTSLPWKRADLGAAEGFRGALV

[2] = biological target: T2, photoactive yellow protein (PYP) (Halorhodospira halophila, UniProt P16113); test: as above; type: binding; details: covalent; thioester to conserved cysteine; space group P6_5, 1.8 A (fixed target) and 1.9 A (tape drive); PEG 4000, MES pH 6.5
T2 construct: full length, 125 amino acids, 14 kDa; overexpressed in Escherichia coli; chromophore attached to the conserved cysteine
T2 sequence (P16113 1-125): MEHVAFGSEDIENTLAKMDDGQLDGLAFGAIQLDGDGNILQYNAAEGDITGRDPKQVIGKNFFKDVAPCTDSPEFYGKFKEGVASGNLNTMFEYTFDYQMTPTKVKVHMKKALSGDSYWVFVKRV

In the case of `C=CC1=C(C)/C(=C/C2=NC(=C\c3[nH]c(/C=C4\NC(=O)C(C)=C4C=C)c(C)c3CCC(=O)O)/C(CCC(=O)O)=C2C)NC1=O` [biliverdin], the “serial synchrotron X-ray crystallography (room temperature)” value [1] is reported as “The DED features, localized to the BV chromophore, indicate displacement of the BV”.

`O=C(O)/C=C/c1ccc(O)cc1` [p-coumaric acid] was tested, and the “serial synchrotron X-ray crystallography (room temperature)” value [2] was “The pCA chromophore pocket is marked by the red box”.
